# Results as given in publication PMC8222254, “Self-assembly of an anion receptor with metal-dependent kinase inhibition and potent in vitro anti-cancer properties” (Nature Communications, 2021).
# Values joined by “and” are separate entries in the source; they are usually repeats but may differ in a detail not shown here. Identical values can stand only once.
# Columns and labels:
# Experiment in all cases: Kinase inhibition screen, cell-free 33P ATP assay at 10 μM
# Type in all cases: biochemical
# [1] = biological target: 140 purified human kinases (Homo sapiens, UniProt P08069); details: IGF-1R
# Sequence of 140 purified human kinases (Homo sapiens, UniProt P08069) (P08069 31-1367): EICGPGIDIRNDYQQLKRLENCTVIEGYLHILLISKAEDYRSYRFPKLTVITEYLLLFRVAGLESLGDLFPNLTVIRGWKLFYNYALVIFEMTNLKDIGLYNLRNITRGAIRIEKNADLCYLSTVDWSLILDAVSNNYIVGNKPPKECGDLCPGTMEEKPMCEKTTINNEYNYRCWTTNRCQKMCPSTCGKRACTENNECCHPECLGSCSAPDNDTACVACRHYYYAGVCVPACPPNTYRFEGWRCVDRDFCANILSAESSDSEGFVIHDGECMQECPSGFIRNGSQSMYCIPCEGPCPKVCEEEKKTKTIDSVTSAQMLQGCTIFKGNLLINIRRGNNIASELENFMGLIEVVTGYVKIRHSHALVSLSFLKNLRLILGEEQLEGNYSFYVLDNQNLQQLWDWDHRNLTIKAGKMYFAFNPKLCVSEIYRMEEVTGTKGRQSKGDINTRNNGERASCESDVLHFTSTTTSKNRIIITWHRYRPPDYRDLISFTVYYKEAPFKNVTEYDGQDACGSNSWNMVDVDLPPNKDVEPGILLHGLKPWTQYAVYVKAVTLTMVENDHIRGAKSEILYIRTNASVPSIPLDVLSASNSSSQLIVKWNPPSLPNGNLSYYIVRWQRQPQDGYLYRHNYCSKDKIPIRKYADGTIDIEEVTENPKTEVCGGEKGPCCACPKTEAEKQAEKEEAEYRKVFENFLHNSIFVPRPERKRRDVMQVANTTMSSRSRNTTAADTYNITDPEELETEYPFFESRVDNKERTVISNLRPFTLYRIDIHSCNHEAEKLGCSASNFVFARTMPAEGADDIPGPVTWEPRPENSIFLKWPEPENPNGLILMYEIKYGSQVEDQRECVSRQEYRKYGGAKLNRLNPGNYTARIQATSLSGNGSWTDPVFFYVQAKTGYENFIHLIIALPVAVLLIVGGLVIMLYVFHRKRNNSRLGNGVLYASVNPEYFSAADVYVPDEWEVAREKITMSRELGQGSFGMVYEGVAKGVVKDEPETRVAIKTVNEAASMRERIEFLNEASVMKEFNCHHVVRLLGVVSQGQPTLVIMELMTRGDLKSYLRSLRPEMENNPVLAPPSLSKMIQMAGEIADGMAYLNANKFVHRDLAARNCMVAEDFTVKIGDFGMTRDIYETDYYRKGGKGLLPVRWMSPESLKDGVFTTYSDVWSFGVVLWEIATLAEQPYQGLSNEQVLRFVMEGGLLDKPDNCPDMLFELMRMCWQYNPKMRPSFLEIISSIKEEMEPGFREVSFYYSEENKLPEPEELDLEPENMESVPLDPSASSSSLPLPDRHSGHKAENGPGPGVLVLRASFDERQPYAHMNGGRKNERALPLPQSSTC
# Method in brief: (§1)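 Radiometric ^33P ATP cell-free format with purified enzymes; both complexes run at 10 μM in duplicate, results plotted on a kinome map via HGNC symbols.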
# [2] = biological target: T1, 140 purified human kinases (Homo sapiens, UniProt Q13188)
# T1 sequence (Q13188 1-491): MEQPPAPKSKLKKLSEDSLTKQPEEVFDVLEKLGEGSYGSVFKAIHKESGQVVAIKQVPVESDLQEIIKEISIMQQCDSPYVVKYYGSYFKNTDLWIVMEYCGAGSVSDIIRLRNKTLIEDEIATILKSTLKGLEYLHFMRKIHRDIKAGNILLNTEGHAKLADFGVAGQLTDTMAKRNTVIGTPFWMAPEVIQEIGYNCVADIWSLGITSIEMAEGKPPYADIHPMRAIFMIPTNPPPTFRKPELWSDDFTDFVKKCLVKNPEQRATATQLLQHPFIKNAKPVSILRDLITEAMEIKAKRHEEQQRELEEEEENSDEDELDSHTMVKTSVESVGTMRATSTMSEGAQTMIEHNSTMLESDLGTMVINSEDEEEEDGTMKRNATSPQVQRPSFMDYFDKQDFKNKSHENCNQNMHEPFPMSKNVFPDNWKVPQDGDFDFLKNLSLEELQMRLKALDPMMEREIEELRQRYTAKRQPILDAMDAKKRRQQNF
# Method in brief: as §1
# [3] = biological target: 140 purified human kinases (Homo sapiens, UniProt P16234); details: PDGFRA
# Sequence of 140 purified human kinases (Homo sapiens, UniProt P16234) (P16234 24-1089): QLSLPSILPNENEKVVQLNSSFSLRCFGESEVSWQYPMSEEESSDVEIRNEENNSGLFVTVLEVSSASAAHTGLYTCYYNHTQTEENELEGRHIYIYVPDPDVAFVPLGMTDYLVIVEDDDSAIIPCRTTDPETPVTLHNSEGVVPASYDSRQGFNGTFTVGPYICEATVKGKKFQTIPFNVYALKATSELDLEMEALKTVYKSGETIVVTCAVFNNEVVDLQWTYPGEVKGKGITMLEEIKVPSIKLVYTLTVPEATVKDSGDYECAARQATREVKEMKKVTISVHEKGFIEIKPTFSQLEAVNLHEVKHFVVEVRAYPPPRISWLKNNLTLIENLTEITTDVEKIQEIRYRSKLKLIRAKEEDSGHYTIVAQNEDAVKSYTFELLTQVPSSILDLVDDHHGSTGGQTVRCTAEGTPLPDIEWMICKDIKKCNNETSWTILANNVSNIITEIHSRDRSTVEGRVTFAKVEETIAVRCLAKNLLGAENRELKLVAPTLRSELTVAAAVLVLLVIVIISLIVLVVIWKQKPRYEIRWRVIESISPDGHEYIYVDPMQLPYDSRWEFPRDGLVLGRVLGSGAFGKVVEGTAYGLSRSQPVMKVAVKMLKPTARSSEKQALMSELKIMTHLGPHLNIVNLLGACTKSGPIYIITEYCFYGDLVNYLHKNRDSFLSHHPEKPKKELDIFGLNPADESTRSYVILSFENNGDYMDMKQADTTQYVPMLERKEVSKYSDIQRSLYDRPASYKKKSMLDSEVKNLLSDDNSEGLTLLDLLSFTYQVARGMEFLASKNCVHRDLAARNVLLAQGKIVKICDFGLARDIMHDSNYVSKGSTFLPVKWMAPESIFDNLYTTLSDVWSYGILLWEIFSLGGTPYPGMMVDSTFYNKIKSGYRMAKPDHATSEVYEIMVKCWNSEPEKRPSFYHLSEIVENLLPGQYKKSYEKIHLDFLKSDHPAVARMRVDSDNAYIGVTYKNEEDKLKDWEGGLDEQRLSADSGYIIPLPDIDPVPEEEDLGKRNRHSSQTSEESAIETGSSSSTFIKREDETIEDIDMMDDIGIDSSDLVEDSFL
# Method in brief: as §1
# [4] = biological target: T2, 140 purified human kinases (Homo sapiens, UniProt O14965); details: Aurora A
# T2 sequence (O14965 1-403): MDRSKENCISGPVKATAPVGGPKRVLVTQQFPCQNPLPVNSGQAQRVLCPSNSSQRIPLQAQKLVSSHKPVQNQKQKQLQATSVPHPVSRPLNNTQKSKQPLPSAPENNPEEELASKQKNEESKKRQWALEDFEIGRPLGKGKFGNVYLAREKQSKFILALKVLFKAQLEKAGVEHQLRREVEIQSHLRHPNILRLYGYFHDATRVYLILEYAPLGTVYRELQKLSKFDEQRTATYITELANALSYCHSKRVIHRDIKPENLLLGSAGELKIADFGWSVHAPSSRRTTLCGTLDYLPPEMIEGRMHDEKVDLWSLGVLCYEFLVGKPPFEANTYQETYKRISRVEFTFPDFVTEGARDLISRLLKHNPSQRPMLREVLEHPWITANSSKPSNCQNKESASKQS
# Method in brief: as §1
# [5] = biological target: 140 purified human kinases (Homo sapiens, UniProt Q9BYT3)
# Sequence of 140 purified human kinases (Homo sapiens, UniProt Q9BYT3) (Q9BYT3 whole entry): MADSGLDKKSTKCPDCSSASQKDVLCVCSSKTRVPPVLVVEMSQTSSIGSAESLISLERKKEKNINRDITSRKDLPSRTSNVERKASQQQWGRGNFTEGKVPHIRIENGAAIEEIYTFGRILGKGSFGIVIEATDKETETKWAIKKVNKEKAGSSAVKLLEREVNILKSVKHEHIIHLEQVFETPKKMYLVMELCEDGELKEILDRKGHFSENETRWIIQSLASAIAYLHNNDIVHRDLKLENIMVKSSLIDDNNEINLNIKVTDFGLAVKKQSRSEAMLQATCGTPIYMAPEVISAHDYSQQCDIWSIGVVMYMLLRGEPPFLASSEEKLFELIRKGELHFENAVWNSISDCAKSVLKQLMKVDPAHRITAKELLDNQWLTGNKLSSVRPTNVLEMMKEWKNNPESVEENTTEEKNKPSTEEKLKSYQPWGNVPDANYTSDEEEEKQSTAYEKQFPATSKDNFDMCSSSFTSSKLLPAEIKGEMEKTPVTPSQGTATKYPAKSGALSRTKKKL
# Method in brief: as §1
# [6] = biological target: T3, 140 purified human kinases (Homo sapiens, UniProt Q9NWZ3)
# T3 sequence (Q9NWZ3 1-460): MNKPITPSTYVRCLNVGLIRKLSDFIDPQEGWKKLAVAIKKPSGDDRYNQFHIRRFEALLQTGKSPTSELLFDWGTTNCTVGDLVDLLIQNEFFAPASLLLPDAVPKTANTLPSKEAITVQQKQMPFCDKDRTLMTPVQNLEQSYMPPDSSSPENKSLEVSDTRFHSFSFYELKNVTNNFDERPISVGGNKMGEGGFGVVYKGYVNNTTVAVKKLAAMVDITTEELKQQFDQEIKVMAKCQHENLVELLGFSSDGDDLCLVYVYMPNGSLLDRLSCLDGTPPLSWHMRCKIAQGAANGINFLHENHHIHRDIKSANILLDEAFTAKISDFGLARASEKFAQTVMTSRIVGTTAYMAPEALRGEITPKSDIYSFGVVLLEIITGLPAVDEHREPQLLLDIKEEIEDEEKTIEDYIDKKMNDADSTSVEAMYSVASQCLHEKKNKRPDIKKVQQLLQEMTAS
# Method in brief: as §1
# [7] = biological target: 140 purified human kinases (Homo sapiens, UniProt P53350); details: for % Activity Run 1 / % Activity Run 2: 10 µM
# Sequence of 140 purified human kinases (Homo sapiens, UniProt P53350) (P53350 whole entry): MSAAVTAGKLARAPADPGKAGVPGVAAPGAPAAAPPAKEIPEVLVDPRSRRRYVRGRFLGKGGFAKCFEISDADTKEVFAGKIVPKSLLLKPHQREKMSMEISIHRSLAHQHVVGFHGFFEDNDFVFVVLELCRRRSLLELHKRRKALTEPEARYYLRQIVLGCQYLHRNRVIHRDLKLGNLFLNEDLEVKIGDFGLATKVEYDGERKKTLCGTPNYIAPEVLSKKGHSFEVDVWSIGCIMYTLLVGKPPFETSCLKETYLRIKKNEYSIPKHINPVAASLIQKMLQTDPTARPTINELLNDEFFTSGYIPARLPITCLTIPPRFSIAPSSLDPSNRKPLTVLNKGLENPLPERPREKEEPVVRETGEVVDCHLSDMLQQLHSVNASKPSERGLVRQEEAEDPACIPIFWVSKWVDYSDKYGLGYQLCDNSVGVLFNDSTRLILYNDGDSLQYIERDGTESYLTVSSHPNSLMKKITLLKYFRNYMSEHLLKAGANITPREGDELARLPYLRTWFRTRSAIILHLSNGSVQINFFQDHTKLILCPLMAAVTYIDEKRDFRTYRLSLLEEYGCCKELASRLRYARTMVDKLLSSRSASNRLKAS
# Method in brief: as §1
# [8] = biological target: 140 purified human kinases (Homo sapiens, UniProt P54764)
# Sequence of 140 purified human kinases (Homo sapiens, UniProt P54764) (P54764 20-986): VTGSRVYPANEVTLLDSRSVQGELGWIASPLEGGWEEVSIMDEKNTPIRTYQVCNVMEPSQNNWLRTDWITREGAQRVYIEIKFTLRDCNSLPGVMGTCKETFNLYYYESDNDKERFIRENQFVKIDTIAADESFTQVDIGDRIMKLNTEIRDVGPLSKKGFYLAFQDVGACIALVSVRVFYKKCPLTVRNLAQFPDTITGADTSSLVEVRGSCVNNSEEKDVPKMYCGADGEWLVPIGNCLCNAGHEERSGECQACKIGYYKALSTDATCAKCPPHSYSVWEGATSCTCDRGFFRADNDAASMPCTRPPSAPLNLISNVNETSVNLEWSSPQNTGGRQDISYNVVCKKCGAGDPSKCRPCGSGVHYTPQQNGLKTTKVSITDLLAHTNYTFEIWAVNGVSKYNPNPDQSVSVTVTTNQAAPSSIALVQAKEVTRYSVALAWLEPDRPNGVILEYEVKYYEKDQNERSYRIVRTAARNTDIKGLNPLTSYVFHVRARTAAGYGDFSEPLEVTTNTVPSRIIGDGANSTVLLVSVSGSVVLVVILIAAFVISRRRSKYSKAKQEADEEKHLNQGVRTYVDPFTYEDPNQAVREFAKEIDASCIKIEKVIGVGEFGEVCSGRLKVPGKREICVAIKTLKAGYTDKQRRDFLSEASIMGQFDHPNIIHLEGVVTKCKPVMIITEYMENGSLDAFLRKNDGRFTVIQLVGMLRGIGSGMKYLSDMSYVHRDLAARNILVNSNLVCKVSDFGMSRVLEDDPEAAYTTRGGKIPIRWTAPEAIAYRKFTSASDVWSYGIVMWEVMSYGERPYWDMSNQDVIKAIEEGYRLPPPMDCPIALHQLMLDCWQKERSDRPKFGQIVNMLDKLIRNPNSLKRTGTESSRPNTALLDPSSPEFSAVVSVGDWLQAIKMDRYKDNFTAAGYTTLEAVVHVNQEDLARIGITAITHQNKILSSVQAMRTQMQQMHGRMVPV
# Method in brief: as §1
smiles,measurement,setting,value
[Cu+2].[Cu+2].[Cu+2].c1ccc(-c2csc(NCCN(CCNc3nc(-c4ccccn4)cs3)CCNc3nc(-c4ccccn4)cs3)n2)nc1.c1ccc(-c2csc(NCCN(CCNc3nc(-c4ccccn4)cs3)CCNc3nc(-c4ccccn4)cs3)n2)nc1 [[L2Cu3]6+],% Inhibition Run 1,[1],0%
same,% Inhibition Run 2,[1],16.4%
same,"% Inhibition, Mean",[1],8%
same,mean % activity,[1],92%
same,% activity,[1]; Run 1,100%
same,% activity,[1]; Run 2,83.6%
same,% Inhibition Run 1,[2]; MST2,38.8%
same,% Inhibition Run 2,[2]; MST2,41.9%
same,"% Inhibition, Mean",[2]; MST2,40%
same,mean % activity,[2]; MST2,60%
same,% activity,"[2]; MST2, Run 1",61.2%
same,% activity,"[2]; MST2, Run 2",58.1%
same,"% Activation, Mean value",[3],4.7%
same,% Inhibition Run 1,[3],10.8%
same,% Inhibition Run 2,[3],-20.2%
same,"% Inhibition, Mean",[3],-4.7%
same,mean % activity,[3],105%
same,% activity,[3]; Run 1,89.2%
same,% activity,[3]; Run 2,120.2%
same,% Inhibition Run 1,[4],30.9%
same,% Inhibition Run 2,[4],28.1%
same,"% Inhibition, Mean",[4],30%
same,mean % activity,[4],71%
same,% activity,[4]; Run 1,69.1%
same,% activity,[4]; Run 2,71.9%
same,"% Activation, Mean value",[5]; STK33,7%
same,% Inhibition Run 1,[5]; STK33,-1.8%
same,% Inhibition Run 2,[5]; STK33,-12.3%
same,"% Inhibition, Mean",[5]; STK33,-7%
same,mean % activity,[5]; STK33,107%
same,% activity,"[5]; STK33, Run 1",101.8%
same,% activity,"[5]; STK33, Run 2",112.3%
same,% Inhibition Run 1,[6]; IRAK4,53.9%
same,% Inhibition Run 2,[6]; IRAK4,65.2%
same,"% Inhibition, Mean",[6]; IRAK4,60%
same,mean % activity,[6]; IRAK4,40%
same,% activity,"[6]; IRAK4, Run 1",46.1%
same,% activity,"[6]; IRAK4, Run 2",34.8%
same,"% Activation, Mean value",[7]; PLK1,12%
same,% Inhibition Run 1,[7]; PLK1,-4.1%
same,% Inhibition Run 2,[7]; PLK1,-19.1%
same,"% Inhibition, Mean",[7]; PLK1,-12%
same,mean % activity,[7]; PLK1,112%
same,% activity,"[7]; PLK1, Run 1",104.1%
same,% activity,"[7]; PLK1, Run 2",119.1%
same,% Activity Run 1,[7]; PLK1,104.10%
same,% Activity Run 2,[7]; PLK1,119.10%
same,% Inhibition Run 1,[8]; EPH-A4,4.5%
same,% Inhibition Run 2,[8]; EPH-A4,-3.1%
same,"% Inhibition, Mean",[8]; EPH-A4,0.7%
same,mean % activity,[8]; EPH-A4,99%
same,% activity,"[8]; EPH-A4, Run 1",95.5%
same,% activity,"[8]; EPH-A4, Run 2",103.1%
CC(=O)[O-].CC(=O)[O-].CC(=O)[O-].CC(=O)[O-].CC(=O)[O-].CC(=O)[O-].[Zn+2].[Zn+2].[Zn+2].c1ccc(-c2csc(NCCN(CCNc3nc(-c4ccccn4)cs3)CCNc3nc(-c4ccccn4)cs3)n2)nc1.c1ccc(-c2csc(NCCN(CCNc3nc(-c4ccccn4)cs3)CCNc3nc(-c4ccccn4)cs3)n2)nc1 [[L2Zn3]6+],"% Inhibition, Mean",[1],0.5%
same,mean % activity,[1],100%
same,% activity,[1]; duplicate runs,92% and 107%
same,"% Inhibition, Mean",[2]; MST2,10%
same,"% Inhibition, Run 1 / Run 2",[2]; MST2,14% and 6%
same,mean % activity,[2]; MST2,90%
same,% activity,"[2]; MST2, duplicate runs",86% and 94%
same,"% Inhibition, Mean",[3],24%
same,"% Inhibition, Run 1 / Run 2",[3],27% and 22%
same,mean % activity,[3],76%
same,% activity,[3]; duplicate runs,74% and 78%
same,"% Inhibition, Mean",[4],83%
same,"% Inhibition, Run 1 / Run 2",[4],84% and 83%
same,mean % activity,[4],17%
same,% Activity inhibition Mean,[4]; 10 µM,83.5%
same,% Activity inhibition Run 1,[4]; 10 µM,84%
same,% Activity inhibition Run 2,[4]; 10 µM,83%
same,% Activity remaining Run 1,[4]; 10 µM,16%
same,% Activity remaining Run 2,[4]; 10 µM,17%
same,% activity,[4]; duplicate runs,16% and 17%
same,"% Inhibition, Mean",[5]; STK33,6.55%
same,"% Inhibition, Run 1 / Run 2",[5]; STK33,3.3% and 10%
same,mean % activity,[5]; STK33,93%
same,% activity,"[5]; STK33, duplicate runs",97% and 90%
same,"% Inhibition, Mean",[6]; IRAK4,10%
same,"% Inhibition, Run 1 / Run 2",[6]; IRAK4,13% and 7%
same,mean % activity,[6]; IRAK4,90%
same,% activity,"[6]; IRAK4, duplicate runs",87% and 93%
same,"% Activation, Mean value",[7]; PLK1,17%
same,"% Inhibition, Mean",[7]; PLK1,-17%
same,"% Inhibition, Run 1 / Run 2",[7]; PLK1,-15% and -19%
same,mean % activity,[7]; PLK1,117%
same,% Activity Run 1,[7]; PLK1,115.0%
same,% Activity Run 2,[7]; PLK1,119.0%
same,% activity,"[7]; PLK1, duplicate runs",115% and 119%
same,"% Inhibition, Mean",[8]; EPH-A4,27%
same,"% Inhibition, Run 1 / Run 2",[8]; EPH-A4,30% and 25%
same,mean % activity,[8]; EPH-A4,73%
same,% activity,"[8]; EPH-A4, duplicate runs",70% and 75%
